# Test results reported in patent US12213957B2, “Use of aminoacetonitrile compounds for the treatment of infection and disease” (PITNEY PHARMACEUTICALS PTY LIMITED, priority 2020, dated 2025).
# Several values for one entry are separate records, joined by “and”; a condition that tells them apart may be missing. Equal values may be shown once. Read-outs that look alike come from different tables or passages of the source.
# Columns and labels:
# [1] = test system: SARS-CoV-2; format: cell-based
# [2] = Blood plasma levels in pet dogs of the veterinary trial; format: in vivo, dog; settings: pet dogs, monepantel 179 mg/kg bw daily; one value per dog
# Protocol: In a Phase 2 veterinary clinical trial, monepantel was administered as tablets daily to six pet dog patients (dog identification numbers: 001-001, 001-002, 001-003, 003-001, 004-002 and 004-003) with treatment naïve B cell lymphoma at a target dose of 179 mg/kg bw. Superficial tumour lesions were measured with calipers, while lesions within the body were assessed by X-Ray, ultrasound, computer tomography (CT) and/or physical palpitation. Baseline Day 0 (D0) predose caliper, X-Ray, ultrasound and CT measurements where available as well as a complete physical examination were recorded.
# An inverse correlation between RECIST1.1 response and blood plasma levels of monepantel and monepantel sulfone was evident. The one dog (003-001) that achieved a partial response, recorded monepantel and […] of 0.1 and 6.7 μM, respectively.
# [3] = test system: VERO cells
# [4] = test system: SARS-CoV-2; format: cell-based; settings: 40 μM and 8 μM compared to 0.064 μM, p<0.001
# [5] = test system: VERO cells infected with SARS-CoV-2; format: cell-based; settings: approximately 10 μM MPLS
# [6] = Blood plasma levels in human patients; format: in vivo; settings: monepantel as Zolvix 5 mg/kg bw daily
# Protocol: In a Phase 1 b clinical trial, monepantel administered as Zolvix daily to four human patients (PA02, PA04, PA06 and PA07) at 5 mg/kg bw provided an anticancer effect by computerised tomography (CT) scanning according to RECIST1.1 criteria. […] Evidence of mTOR pathway signalling inhibition in these patients was supported by the finding of decreased eurkaryotic translation initiation factor 4E-binding protein 1 (EIF-4EBP1) phosphorylation levels from the preparations of PBMCs from PA02, PA04 and PA06 (FIG. 1B). EIF-4EIBP1 phosphorylation levels were not assayed from preparations of PBMCs from PA07.
# Blood plasma monepantel and monepantel sulfone levels of all four patients were recorded at intervals throughout treatment (Table 2).
# [7] = test system: SARS-CoV-2; format: cell-based; settings: Calu-3 human cells, concentrations from 3.00 μM down to 0.013 μM
# [8] = test system: CHO cells; settings: no virus, read-out: CHO and cell 1050 values for MPLS treatment alone; cited from earlier work
compound,measurement,setting,value
"C[C@](C#N)(COc1cc(C#N)ccc1C(F)(F)F)NC(=O)c1ccc(S(=O)(=O)C(F)(F)F)cc1 [MPLS, monepantel sulfone]","SARS-CoV-2 infectivity (TCID50, repeat experiment) compared to no treatment","[1]; MPLS 11.11 μM (highest concentration), VERO cells",significantly reduces SARS-CoV-2 infectivity
same,pathogenicity of VERO cell culture media following infection (TCID50),"[1]; MPLS 8 and 40 μM, strong trend",reduce the pathogenicity
same,Blood plasma Monepantel sulfone Day 24,[2],26.1 µM
same,toxic effect upon VERO cells infected with SARS-CoV-2 (LDH),[3],minimal toxic effect
same,toxicity caused by SARS-CoV-2,[3],appeared to increase toxicity
same,toxicity of VERO cells to SARS-CoV-2 infection,[3],may slightly increase toxicity
same,toxicity to VERO cells,[3],no signs of toxicity
same,toxicity to uninfected VERO cells,[3],some toxicity
same,SARS-CoV-2 toxicity,[3]; African green monkey,does not apparently increase SARS-CoV-2 toxicity
same,SARS-CoV-2 RNA concentration in the media (qPCR),[4],significantly decreased
same,protection against cell death following infection with SARS-CoV-2,[5],almost completely protected VERO cell against cell death
same,"Blood plasma level of monepantel sulfone, Average","[6]; 0.25 h, average of patients",0.00 ∞M
same,Blood plasma level of monepantel sulfone,"[6]; 0.25 h, individual patients",0 ng/ml (3×) and 5.4 ng/ml
same,"Blood plasma level of monepantel sulfone, Average","[6]; 0.5 h, average of patients",0.05 ∞M
same,Blood plasma level of monepantel sulfone,"[6]; 0.5 h, individual patients",8.63 ng/mL and 37.5 ng/mL and 32.1 ng/mL and 13.1 ng/mL
same,"Blood plasma level of monepantel sulfone, Average","[6]; 1 h, average of patients",0.29 ∞M
same,Blood plasma level of monepantel sulfone,"[6]; 1 h, individual patients",65.5 ng/mL and 152 ng/mL and 252 ng/mL and 125 ng/mL
same,"Blood plasma level of monepantel sulfone, Average","[6]; 2 h, average of patients",0.86 ∞M
same,Blood plasma level of monepantel sulfone,"[6]; 2 h, individual patients",266 ng/mL and 482 ng/mL and 639 ng/mL and 360 ng/mL
same,"Blood plasma level of monepantel sulfone, Average","[6]; 4 h, average of patients",1.77 ∞M
same,Blood plasma level of monepantel sulfone,"[6]; 4 h, individual patients",1050 ng/mL and 663 ng/mL and 1140 ng/mL
same,"Blood plasma level of monepantel sulfone, Average","[6]; 8 h, average of patients",1.13 ∞M
same,Blood plasma level of monepantel sulfone,"[6]; 8 h, individual patients",637 ng/mL and 398 ng/mL and 689 ng/mL
same,"Blood plasma level of monepantel sulfone, Average","[6]; 12 h, average of patients",0.68 ∞M
same,Blood plasma level of monepantel sulfone,"[6]; 12 h, individual patients",276 ng/mL and 348 ng/mL and 351 ng/mL
same,"Blood plasma level of monepantel sulfone, Average","[6]; 24 h, average of patients",0.45 ∞M
same,Blood plasma level of monepantel sulfone,"[6]; 24 h, individual patients",179 ng/mL and 258 ng/mL and 214 ng/mL
same,"Blood plasma level of monepantel sulfone, Average","[6]; pre-dose D3, average of patients",267.8 ng/ml and 0.53 ∞M
same,Blood plasma level of monepantel sulfone,"[6]; pre-dose D3, individual patients",269 ng/mL and 240 ng/mL and 285 ng/mL and 277 ng/mL
same,"Blood plasma level of monepantel sulfone, Average","[6]; pre-dose D4, average of patients",272.3 ng/ml and 0.54 ∞M
same,Blood plasma level of monepantel sulfone,"[6]; pre-dose D4, individual patients",291 ng/ml (2×) and 231 ng/ml and 276 ng/ml
same,"Blood plasma level of monepantel sulfone, Average","[6]; pre-dose D5, average of patients",238.3 ng/ml and 0.47 ∞M
same,Blood plasma level of monepantel sulfone,"[6]; pre-dose D5, individual patients",233 ng/mL and 229 ng/mL and 250 ng/mL and 241 ng/mL
same,"Blood plasma level of monepantel sulfone, Average","[6]; pre-dose D6, average of patients",214.3 ng/ml and 0.42 ∞M
same,Blood plasma level of monepantel sulfone,"[6]; pre-dose D6, individual patients",232 ng/mL and 205 ng/mL and 216 ng/mL and 204 ng/mL
same,"Blood plasma level of monepantel sulfone, Average","[6]; pre-dose D7, average of patients",205.0 ng/ml and 10.41 ∞M
same,Blood plasma level of monepantel sulfone,"[6]; pre-dose D7, individual patients",215 ng/mL and 188 ng/mL and 235 ng/mL and 182 ng/mL
same,"Blood plasma level of monepantel sulfone, Average","[6]; pre-dose D14, average of patients",148.0 ng/ml and 0.29 ∞M
same,Blood plasma level of monepantel sulfone,"[6]; pre-dose D14, individual patients",158 ng/mL and 131 ng/mL and 154 ng/mL and 149 ng/mL
same,"Blood plasma level of monepantel sulfone, Average","[6]; pre-dose D21, average of patients",147.0 ng/ml and 0.29 ∞M
same,Blood plasma level of monepantel sulfone,"[6]; pre-dose D21, individual patients",157 ng/mL and 146 ng/mL and 138 ng/mL
same,"Blood plasma level of monepantel sulfone, Average","[6]; pre-dose D28, average of patients",154.3 ng/ml and 0.31 ∞M
same,Blood plasma level of monepantel sulfone,"[6]; pre-dose D28, individual patients",180 ng/mL and 162 ng/mL and 121 ng/mL
same,concentration at 0.25 h,"[6]; plasma, oral, 5 mg/kg bw, 0.25 h, average of patients, read-out: Blood plasma level of monepantel sulfone, Average",1.4 ng/mL
same,concentration at 0.5 h,"[6]; plasma, oral, 5 mg/kg bw, 0.5 h, average of patients, read-out: Blood plasma level of monepantel sulfone, Average",22.8 ng/mL
same,concentration at 1 h,"[6]; plasma, oral, 5 mg/kg bw, 1 h, average of patients, read-out: Blood plasma level of monepantel sulfone, Average",149 ng/mL
same,concentration at 2 h,"[6]; plasma, oral, 5 mg/kg bw, 2 h, average of patients, read-out: Blood plasma level of monepantel sulfone, Average",437 ng/mL
same,concentration at 4 h,"[6]; plasma, oral, 5 mg/kg bw, 4 h, average of patients, read-out: Blood plasma level of monepantel sulfone, Average",896 ng/mL
same,concentration at 4 h,"[6]; plasma, oral, 5 mg/kg bw, 4 h, individual patients, read-out: Blood plasma level of monepantel sulfone",732 ng/mL
same,concentration at 8 h,"[6]; plasma, oral, 5 mg/kg bw, 8 h, average of patients, read-out: Blood plasma level of monepantel sulfone, Average",572 ng/mL
same,concentration at 8 h,"[6]; plasma, oral, 5 mg/kg bw, 8 h, individual patients, read-out: Blood plasma level of monepantel sulfone",565 ng/mL
same,concentration at 12 h,"[6]; plasma, oral, 5 mg/kg bw, 12 h, average of patients, read-out: Blood plasma level of monepantel sulfone, Average",346 ng/mL
same,concentration at 12 h,"[6]; plasma, oral, 5 mg/kg bw, 12 h, individual patients, read-out: Blood plasma level of monepantel sulfone",409 ng/mL
same,concentration at 24 h,"[6]; plasma, oral, 5 mg/kg bw, 24 h, average of patients, read-out: Blood plasma level of monepantel sulfone, Average",226 ng/mL
same,concentration at 24 h,"[6]; plasma, oral, 5 mg/kg bw, 24 h, individual patients, read-out: Blood plasma level of monepantel sulfone",254 ng/mL
same,SARS-CoV-2 infectivity (TCID50),[7],reduced SARS-CoV-2 infectivity
same,IC50,[8],74 µM
